Results from PMC12281424, “A Rac-specific competitive inhibitor of guanine nucleotide binding reduces metastasis in triple-negative breast cancer” (Cell Reports Medicine, 2025).

What was measured:
[1] = target: Adrenergic α2B (Homo sapiens, UniProt P18089); assay: Safety screen; assay type: binding
Protocol: Blood cell counts, kinase profiler, safety screen, bacterial cytotoxicity, Ames, micronucleus assays were performed by the company Eurofins (France).

[2] = target: Potassium Channel [KATP] (Cricetus cricetus, UniProt Q09427); assay: Safety screen; assay type: binding, hamster
Protocol: (§1) Blood cell counts, kinase profiler, safety screen, bacterial cytotoxicity, Ames, micronucleus assays were performed by the company Eurofins (France). The kinase profiler was performed by the company Eurofins (Discovery, Panlab and Cerep).

[3] = target: Axl(h) (Homo sapiens, UniProt P30530); assay: Kinase Profiler; assay type: biochemical
Protocol: as §1

[4] = target: BTK(R28H)(h) (Homo sapiens, UniProt Q06187, R28H); assay: Kinase Profiler; assay type: biochemical
Sequence of BTK(R28H)(h) (Q06187 whole entry R28H): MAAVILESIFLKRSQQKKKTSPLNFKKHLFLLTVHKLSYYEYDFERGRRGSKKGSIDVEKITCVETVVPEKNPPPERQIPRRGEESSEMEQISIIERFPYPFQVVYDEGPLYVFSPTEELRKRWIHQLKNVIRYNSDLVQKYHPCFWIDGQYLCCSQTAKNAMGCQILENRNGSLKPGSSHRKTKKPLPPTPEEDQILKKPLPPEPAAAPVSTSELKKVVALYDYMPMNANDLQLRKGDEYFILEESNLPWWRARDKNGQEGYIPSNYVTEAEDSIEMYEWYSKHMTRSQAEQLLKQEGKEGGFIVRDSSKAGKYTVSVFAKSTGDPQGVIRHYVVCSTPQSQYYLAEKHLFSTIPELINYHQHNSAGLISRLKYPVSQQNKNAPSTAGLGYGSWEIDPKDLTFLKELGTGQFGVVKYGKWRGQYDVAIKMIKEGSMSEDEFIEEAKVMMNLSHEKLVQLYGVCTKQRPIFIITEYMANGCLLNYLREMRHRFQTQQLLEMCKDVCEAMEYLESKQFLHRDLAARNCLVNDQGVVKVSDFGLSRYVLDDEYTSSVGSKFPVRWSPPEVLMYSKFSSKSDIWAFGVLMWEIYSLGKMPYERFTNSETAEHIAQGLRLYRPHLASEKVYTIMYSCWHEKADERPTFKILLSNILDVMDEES
Protocol: as §1

[5] = target: CHK2(I157T)(h) (Homo sapiens, UniProt O96017, I157T); assay: Kinase Profiler; assay type: biochemical
Protocol: (§2) The kinase profiler was performed by the company Eurofins (Discovery, Panlab and Cerep).

[6] = target: CK1γ1(h) (Homo sapiens, UniProt Q9HCP0); assay: Kinase Profiler; assay type: biochemical
Protocol: as §1

[7] = target: IRAK4(h) (Homo sapiens, UniProt Q9NWZ3); assay: Kinase Profiler; assay type: biochemical
Sequence of IRAK4(h) (Q9NWZ3 whole entry): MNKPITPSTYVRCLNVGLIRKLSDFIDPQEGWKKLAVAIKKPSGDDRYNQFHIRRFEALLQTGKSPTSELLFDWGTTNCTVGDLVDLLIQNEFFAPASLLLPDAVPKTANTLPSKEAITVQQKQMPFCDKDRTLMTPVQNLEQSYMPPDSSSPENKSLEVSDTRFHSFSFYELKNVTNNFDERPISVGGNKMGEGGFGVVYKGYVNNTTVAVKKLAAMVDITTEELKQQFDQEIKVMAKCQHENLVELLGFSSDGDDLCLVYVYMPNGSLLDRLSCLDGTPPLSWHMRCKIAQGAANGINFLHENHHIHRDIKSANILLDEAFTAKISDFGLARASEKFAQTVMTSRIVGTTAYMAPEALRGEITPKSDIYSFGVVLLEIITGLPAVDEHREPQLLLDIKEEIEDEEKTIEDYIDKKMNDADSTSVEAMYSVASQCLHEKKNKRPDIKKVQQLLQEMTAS
Protocol: as §2

[8] = target: MEK1(h) (Homo sapiens, UniProt Q02750); assay: Kinase Profiler; assay type: biochemical
Sequence of MEK1(h) (Q02750 whole entry): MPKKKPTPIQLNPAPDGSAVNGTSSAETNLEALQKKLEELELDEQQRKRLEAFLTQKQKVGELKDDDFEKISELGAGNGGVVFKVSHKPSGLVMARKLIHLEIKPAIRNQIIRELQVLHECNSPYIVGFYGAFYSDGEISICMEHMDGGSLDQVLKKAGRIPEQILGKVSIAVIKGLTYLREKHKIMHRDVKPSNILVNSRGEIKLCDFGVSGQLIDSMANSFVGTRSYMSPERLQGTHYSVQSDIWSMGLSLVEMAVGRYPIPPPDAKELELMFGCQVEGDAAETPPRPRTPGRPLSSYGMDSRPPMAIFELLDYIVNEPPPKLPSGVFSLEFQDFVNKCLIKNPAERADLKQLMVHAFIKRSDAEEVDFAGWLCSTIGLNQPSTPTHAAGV
Protocol: as §2

[9] = target: Met(D1246N)(h) (Homo sapiens, UniProt P08581, D1228N); assay: Kinase Profiler; assay type: biochemical
Protocol: as §2

[10] = target: mTOR/FKBP12(h) (Homo sapiens, UniProt P42345); assay: Kinase Profiler; assay type: biochemical
Protocol: as §2

[11] = target: PKG1β(h) (Homo sapiens, UniProt Q13976); assay: Kinase Profiler; assay type: biochemical
Sequence of PKG1β(h) (Q13976 1-686 isoform Q13976-2): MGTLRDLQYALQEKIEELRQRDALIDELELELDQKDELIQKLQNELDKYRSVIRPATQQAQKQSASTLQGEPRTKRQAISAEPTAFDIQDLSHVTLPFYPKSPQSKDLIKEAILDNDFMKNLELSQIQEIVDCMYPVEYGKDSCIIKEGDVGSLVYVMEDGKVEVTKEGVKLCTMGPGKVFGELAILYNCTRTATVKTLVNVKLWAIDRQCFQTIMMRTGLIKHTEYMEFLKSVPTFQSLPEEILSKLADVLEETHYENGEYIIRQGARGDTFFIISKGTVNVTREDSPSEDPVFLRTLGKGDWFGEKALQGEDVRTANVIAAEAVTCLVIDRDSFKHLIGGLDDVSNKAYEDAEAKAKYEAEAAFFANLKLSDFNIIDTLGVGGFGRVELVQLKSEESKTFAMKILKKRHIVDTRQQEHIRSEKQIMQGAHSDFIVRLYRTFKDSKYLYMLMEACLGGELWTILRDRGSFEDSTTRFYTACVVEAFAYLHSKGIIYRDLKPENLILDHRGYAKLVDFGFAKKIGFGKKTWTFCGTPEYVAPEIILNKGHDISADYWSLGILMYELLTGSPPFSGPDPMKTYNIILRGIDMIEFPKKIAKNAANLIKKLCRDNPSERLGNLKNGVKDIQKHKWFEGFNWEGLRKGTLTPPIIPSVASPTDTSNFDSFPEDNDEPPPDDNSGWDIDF
Protocol: as §2

[12] = target: Tec(h) activated (Homo sapiens, UniProt P42680); assay: Kinase Profiler; assay type: biochemical
Sequence of Tec(h) activated (P42680 whole entry): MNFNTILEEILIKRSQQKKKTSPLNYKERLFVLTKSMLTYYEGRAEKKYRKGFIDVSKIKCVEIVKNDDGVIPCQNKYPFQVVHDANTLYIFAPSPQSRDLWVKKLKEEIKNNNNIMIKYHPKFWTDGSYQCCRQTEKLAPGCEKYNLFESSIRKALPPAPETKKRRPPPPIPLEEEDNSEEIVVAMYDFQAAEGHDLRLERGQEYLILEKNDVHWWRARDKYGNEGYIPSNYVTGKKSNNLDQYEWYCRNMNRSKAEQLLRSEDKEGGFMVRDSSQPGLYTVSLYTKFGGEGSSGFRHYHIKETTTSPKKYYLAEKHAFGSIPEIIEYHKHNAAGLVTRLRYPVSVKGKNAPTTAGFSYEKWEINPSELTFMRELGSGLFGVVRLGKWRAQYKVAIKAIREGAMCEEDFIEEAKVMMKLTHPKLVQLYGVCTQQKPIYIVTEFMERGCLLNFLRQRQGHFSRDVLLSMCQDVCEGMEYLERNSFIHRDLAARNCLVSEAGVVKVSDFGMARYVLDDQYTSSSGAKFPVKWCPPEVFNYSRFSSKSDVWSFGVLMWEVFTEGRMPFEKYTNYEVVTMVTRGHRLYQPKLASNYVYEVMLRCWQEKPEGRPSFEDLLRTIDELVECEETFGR
Protocol: as §1

[13] = target: TSSK2(h) (Homo sapiens, UniProt Q96PF2); assay: Kinase Profiler; assay type: biochemical
Sequence of TSSK2(h) (Q96PF2 whole entry): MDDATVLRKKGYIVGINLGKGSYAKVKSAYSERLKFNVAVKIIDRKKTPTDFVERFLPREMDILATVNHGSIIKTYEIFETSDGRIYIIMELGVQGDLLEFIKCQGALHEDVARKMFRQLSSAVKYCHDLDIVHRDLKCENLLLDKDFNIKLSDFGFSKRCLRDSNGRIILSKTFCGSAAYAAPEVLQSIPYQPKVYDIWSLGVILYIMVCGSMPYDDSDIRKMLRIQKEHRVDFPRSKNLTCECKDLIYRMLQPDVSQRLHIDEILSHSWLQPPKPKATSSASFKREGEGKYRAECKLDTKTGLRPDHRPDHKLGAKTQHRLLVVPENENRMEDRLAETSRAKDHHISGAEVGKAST
Protocol: as §2

[14] = target: TYK2(h) (Homo sapiens, UniProt P29597); assay: Kinase Profiler; assay type: biochemical
Sequence of TYK2(h) (P29597 whole entry): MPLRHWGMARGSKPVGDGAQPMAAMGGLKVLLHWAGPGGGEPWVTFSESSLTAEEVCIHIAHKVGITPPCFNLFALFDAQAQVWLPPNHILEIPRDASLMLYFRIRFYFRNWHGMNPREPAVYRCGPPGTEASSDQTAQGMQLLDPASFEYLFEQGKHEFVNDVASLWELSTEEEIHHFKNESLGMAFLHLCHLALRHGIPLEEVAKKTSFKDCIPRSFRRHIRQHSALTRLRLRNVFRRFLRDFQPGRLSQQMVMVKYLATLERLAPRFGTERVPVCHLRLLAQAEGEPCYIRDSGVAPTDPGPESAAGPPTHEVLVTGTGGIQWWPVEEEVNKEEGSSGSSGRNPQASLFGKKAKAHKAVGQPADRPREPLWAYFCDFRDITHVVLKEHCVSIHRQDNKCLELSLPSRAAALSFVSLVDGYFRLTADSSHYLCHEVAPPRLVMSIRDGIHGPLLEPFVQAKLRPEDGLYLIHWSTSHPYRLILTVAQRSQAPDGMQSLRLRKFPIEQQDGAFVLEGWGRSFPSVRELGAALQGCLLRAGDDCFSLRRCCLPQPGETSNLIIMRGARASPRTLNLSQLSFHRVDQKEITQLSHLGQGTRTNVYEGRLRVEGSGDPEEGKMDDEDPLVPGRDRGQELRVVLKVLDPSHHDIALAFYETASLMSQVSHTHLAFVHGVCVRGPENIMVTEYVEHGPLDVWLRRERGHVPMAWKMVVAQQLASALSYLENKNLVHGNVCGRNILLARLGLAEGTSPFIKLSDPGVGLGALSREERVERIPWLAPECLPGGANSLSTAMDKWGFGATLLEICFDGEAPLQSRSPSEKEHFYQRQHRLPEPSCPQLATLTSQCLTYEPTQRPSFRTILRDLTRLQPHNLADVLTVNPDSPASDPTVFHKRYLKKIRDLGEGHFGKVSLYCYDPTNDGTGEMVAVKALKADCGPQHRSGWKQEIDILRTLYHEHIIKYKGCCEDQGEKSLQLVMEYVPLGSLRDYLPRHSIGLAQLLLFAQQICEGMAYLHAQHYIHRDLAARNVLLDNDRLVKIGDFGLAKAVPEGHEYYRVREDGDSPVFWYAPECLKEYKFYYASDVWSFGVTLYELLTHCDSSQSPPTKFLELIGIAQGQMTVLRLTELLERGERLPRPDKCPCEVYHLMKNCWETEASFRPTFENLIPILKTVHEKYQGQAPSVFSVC
Protocol: as §1

[15] = target: PI3K e (p110a/p65a)(h) (Homo sapiens, UniProt P42336); assay: Kinase Profiler; assay type: biochemical
Protocol: as §2

[16] = target: CDC42 (Homo sapiens, UniProt P60953); assay: Surface plasmon resonance; assay type: binding; design: purchased Cytoskeleton CD01; settings: A41 0 to 25 μM
Sequence of CDC42 (P60953 whole entry): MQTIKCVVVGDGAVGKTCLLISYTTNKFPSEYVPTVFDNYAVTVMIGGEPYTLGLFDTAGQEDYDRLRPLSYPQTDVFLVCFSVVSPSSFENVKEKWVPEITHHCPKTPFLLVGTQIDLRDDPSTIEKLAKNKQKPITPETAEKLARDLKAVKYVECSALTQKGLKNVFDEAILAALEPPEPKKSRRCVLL
Protocol: SPR immobilization was performed at 25°C. RAC1, RHOA and CDC42 purified proteins (respectively […] and CD01, Cytoskeleton) were diluted to 5 μg/mL in Na^+ acetate buffer (pH 5.0) and injected into sensor chip CM5 (GE Healthcare) in a Biacore T200 (GE Healthcare) that was activated with NHS/EDC buffer. Approximately 5,000 response units of the purified protein were immobilized on the biosensor chip. Biosensor chips were blocked by an injection of 1 mM ethanolamine (pH 8.5). SPR analysis was performed at 25°C in HBSEP running buffer (5% DMSO) with or without EDTA (20 mM). A41 compound was injected over the RAC1, RHOA or CDC42 functionalized surface in concentration range from 0 to 25μM. Association and dissociation phases were monitored during 60s and 300s, respectively.

Sequence of Adrenergic α2B (P18089 whole entry): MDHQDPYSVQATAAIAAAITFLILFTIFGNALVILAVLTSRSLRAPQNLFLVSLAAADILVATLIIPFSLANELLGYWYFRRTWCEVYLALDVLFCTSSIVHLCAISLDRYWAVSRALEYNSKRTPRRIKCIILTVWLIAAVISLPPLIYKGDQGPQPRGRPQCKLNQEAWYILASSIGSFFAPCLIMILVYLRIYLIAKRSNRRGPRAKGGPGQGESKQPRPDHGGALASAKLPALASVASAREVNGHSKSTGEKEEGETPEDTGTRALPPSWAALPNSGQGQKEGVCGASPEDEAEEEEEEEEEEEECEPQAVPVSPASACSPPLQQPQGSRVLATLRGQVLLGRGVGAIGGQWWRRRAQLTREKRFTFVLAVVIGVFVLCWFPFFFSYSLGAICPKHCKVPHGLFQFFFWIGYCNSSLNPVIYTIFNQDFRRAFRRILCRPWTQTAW

COc1ccc(OC)c(NS(=O)(=O)c2ccc(NC(=O)CCSc3ccc(C)cc3)cc2)c1 [Compound A41]
% inh. [1]: 9%
% inh. [2]: 11%
Activity(%) [3]: 101%
Activity(%) [4]: 102%
Activity(%) [5]: 112%
Activity(%) [6]: 106%
Activity(%) [7]: 99%
Activity(%) [8]: 97%
Activity(%) [9]: 119%
Activity(%) [10]: 104%
Activity(%) [11]: 105%
Activity(%) [12]: 112%
Activity(%) [13]: 111%
Activity(%) [14]: 108%
Activity(%) [15]: 102%
binding [16]: No binding was measured
